We go through 19 compounds from patent US9428501B2, “Bicyclic nitrogen-containing aromatic heterocyclic amide compound” (ASTELLAS PHARMA INC., priority 2013, dated 2016).

One may read the EC50 as the concentration that produces a half-maximal response.

Where two headings read alike, the source gives them in different places.

Assay [1] addresses human mitochondrial Complex I (Homo sapiens, UniProt O75251+O75306+P03886). The format is biochemical. The procedure: Mitochondria was extracted from MDA-MB-453 tumor, and the Complex I inhibitory activity of the test compound was evaluated.
Human PIK3CA mutation-positive breast cancer cell line MDA-MB-453 cells were subcutaneously implanted into nude mice, MDA-MB-453 tumor was excised, a mitochondria extraction solution (0.25 M Sucrose, 2 mM EDTA, 10 mM Tris/HCl pH 7.5) of 9 times of tumor weight was added thereto, and crushing was carried out thereon. The reaction mixture was centrifuged at 600×g and 4° C. for 10 minutes to obtain a supernatant, and the supernatant was centrifuged at 14000×g and 4° C. for 10 minutes, thereby obtaining a pellet. The pellet was suspended in 10 mM Tris/HCl pH 7.5 of 5 times of the excised tumor weight, thereby obtaining a human mitochondrial suspension.
Next, 25 μl of the human mitochondrial suspension per 1 ml of Complex I activity measurement solution (200 mM potassium phosphate pH 7.6, 0.35% Bovine Serum Albumin (BSA), 60 μM 2,6-dichlorophenol-indophenol, 70 μM decylubiquinone, 1 μM antimycin) was added. After dispensed into a 96 or 384-well plate, a test compound (from 10000 nM to 0.3 nM) and DMSO which is a solvent for the test compound as a negative control were added such that a final concentration of Rotenone which is a Complex I inhibitor as a positive control becomes 1 μM. Further, NADH was added so as to have a final concentration of 0.2 mM, and a change in absorbance at a wavelength of 600 nm using SpectraMax (manufactured by Molecular Devices LLC) set to 37° C. in advance was measured. […] Moreover, in the Table, Ex indicates Example No. (the same shall apply hereinafter.).

In assay [2] the test system is human PIK3CA mutation-positive breast cancer cell line MDA-MB-453 cells. The experiment in a line: Scaffold independent cell proliferation inhibitory effect, MDA-MB-453 cells. To be noted: non-adhesive plate, 4 days, CellTiter-Glo, read-out: IC50 (cell proliferation inhibition). The format is cell-based. As for the experimental part:
The effect on proliferation of cancer cells of the test compound was evaluated.
Measurement (colony method) of the scaffold independent cell proliferation is known as a system in which the anti-cancer effect of the test compound is examined. As a method for measuring cell-non-adhesive proliferation substituting the colony method, there is a method of using a non-adhesive plate as follows.
Thereafter, the cells were cultured for 4 days at 37° C. in the absence of CO2, and a cytometric reagent (CellTiter-Glo Luminescent Cell Viability assay manufactured by Promega Corporation) was added. The resultant product was stirred for 30 minutes, and then measurement was carried out using a luminescence measurement apparatus (ARVO manufactured by Perkin Elmer Inc.).
For orientation: Cellular ATP, detected with luciferase, serves as a proxy for viable cell number.

Assay [3] has as its system MDA-MB-453 cells. The experiment in a line: Anti-tumor effect in MDA-MB-453 cell cancer-bearing mouse. It counts as in vivo. To be noted: oral, once a day for 15 days, Balb/c nude mouse. The procedure: 3×10^6 cells of MDA-MB-453 cells which were suspended with PBS were subcutaneously injected to be planted in the back of a 5 to 6 weeks old male Balb/c nude mouse (provided by Charles River Laboratories, Japan). 10 days after planting, the test compound was administered. The test was carried out on respective five mice of the solvent group and the test compound administered group, and 6% aqueous cyclodextrin solution was administered to the solvent group, and a mixture of 6% aqueous cyclodextrin solution and the test compound (1 or 3 mg/kg) was orally administered to the test compound administered group. Administration was carried out once a day for 15 days, and body weight and tumor size were measured approximately every other day. The following equation was used to calculate the tumor volume.

Assay [4] deals with AMPK. The experiment in a line: Evaluation of AMPK activation effect (phosphorylation of ACC Ser79, Cell ELISA in MDA-MB-453 cells). It counts as cell-based, human. As to conditions: 2 hours. The procedure:
By measuring phosphorylation of 79th serine (Ser79) of Acetyl-CoA Carboxylase (ACC) which is a substrate of AMPK with Cell ELISA, the AMPK activation effect by the test compound was evaluated.
In order to make MDA-MB-453 cell become 15000 cells per well, each 36 μl was seeded in Leibovitz's L-15 medium including 10% fetal bovine serum (manufactured by Life Technologies Corp.) in a 384 well plate, followed by culturing at 37° C. overnight in the absence of CO2. […] After the incubation, 20 μl of a 40% glyoxal solution (Nacalai Tesque) was added to each well, and then cells were fixed by leaving to stand at room temperature for 30 minutes. Thereafter, the supernatant was removed by centrifuging the plate, and then 0.1% Triton X-100-containing Phosphate-Buffered Saline (PBS) was added to each well by 20 followed by incubating at room temperature for 10 minutes. The 0.1% Triton X-100-containing PBS was removed by centrifuging for 8 seconds at 800 rpm (all solution removal operation by centrifuge described below were carried out under the same conditions), and then a blocking solution (ODYSSEY Blocking Buffer; manufactured by Li—COR Biosciences) was added to each well by 20 μl, followed by leaving to stand at room temperature for 1 hour. The blocking solution was removed by centrifuging, with the exception of the blocking solution by centrifugation, and then a blocking solution which was diluted such that the amount of phosphorylation antibody (manufactured by Cell Signaling Technology, Inc) of ACC Ser79 as a primary antibody is 1/500 was added to each well by 10 followed by leaving to stand at 4° C. overnight. The following day, the reaction liquid was removed by centrifuging the plate, and then 0.05% Tween-20-containing Tris-Buffered Saline (TBS) (manufacture by Thermo Scientific Inc.; used in 1× in which 20×TBS Tween-20 was diluted with ion-exchange water) was added to each well by 25 followed by washing each well by centrifugal removal. The washing of each well was repeated for a total of 3 times. After washing, a blocking solution which was diluted such that the amount of IRDye 800CW Goat anti-Rabbit IgG (manufactured by Li—CoR Biosciences) as a secondary antibody is 1/1000 was added to each well by 10 μl, followed by leaving to stand at room temperature for 1 hour. After the secondary antibody reaction, the reaction liquid was removed by centrifuging the plate, and then each well was washed three times with 0.05% Tween-20-containing TBS in the same manner as after the primary antibody reaction. After the washing solution was removed, without change, the plate was air-dried at room temperature for 3 hours or longer and signals were measured by Aerius (manufactured by Li—CoR Biosciences).
(An ELISA detects its analyte on a solid surface through an enzyme-linked reagent.)

[5] abbreviates: mitochondria from MDA-MB-453 tumor, absorbance 600 nm, 37° C.; read-out: IC50 (Complex I inhibition).

Chain of human mitochondrial Complex I (O75251 39-213 limits assumed): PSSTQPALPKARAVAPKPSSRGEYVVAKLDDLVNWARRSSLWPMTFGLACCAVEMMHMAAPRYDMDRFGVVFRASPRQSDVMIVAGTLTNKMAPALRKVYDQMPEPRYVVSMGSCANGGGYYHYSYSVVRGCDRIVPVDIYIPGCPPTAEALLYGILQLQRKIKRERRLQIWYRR
Chain of human mitochondrial Complex I (O75306 34-463 limits assumed): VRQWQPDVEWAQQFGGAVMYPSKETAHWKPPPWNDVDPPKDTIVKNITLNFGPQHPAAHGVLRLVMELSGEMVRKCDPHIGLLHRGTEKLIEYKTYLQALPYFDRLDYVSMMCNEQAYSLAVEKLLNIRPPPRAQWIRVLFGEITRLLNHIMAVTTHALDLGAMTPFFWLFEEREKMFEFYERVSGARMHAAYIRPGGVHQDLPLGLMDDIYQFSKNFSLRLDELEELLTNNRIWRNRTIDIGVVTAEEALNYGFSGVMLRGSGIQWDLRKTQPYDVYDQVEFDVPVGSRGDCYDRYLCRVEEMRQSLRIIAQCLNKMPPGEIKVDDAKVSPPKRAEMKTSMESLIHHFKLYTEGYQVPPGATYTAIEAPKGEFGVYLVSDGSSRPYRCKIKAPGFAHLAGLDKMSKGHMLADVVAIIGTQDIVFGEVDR
Chain of human mitochondrial Complex I (P03886 whole entry): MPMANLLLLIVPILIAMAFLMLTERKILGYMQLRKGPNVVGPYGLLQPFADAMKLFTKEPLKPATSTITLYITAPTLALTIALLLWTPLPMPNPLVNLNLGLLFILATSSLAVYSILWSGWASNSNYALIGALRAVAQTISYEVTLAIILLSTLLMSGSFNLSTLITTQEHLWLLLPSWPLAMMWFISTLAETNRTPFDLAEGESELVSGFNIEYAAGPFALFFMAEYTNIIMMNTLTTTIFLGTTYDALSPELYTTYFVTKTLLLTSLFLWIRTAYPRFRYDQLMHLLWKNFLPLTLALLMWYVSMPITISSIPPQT

For `COc1cnc(CN2CCC(c3ccc4c(c3)cc(C(=O)N3CCN(Cc5ccc(C#N)cc5)CC3)n4C)CC2)cn1` [Ex 79], the IC50 stood at 0.12 µM in assay [1] (setting [5]) and 0.0078 µM in assay [2]. In assay [3] (1 mg/kg), the “Anti-tumor effect, regression rate” value amounted to 43% regression. Besides, the midpoint of the response in assay [4], the EC50, lay at 0.0033 µM.

`COc1ccc(CN2CCC(c3ccc4[nH]c(C(=O)N5CCN(Cc6ccc(C(F)(F)F)cc6)CC5)nc4c3)CC2)cn1` [Example 1, (5-{1-[(6-methoxypyridin-3-yl)methyl]piperidin-4-yl}-1H-benzimidazol-2-yl){4-[4-(trifluoromethyl)benzyl]piperazin-1-yl}methanone ditosylate]: in assay [3] (3 mg/kg), the “Anti-tumor effect, regression rate” value is recorded as 26% regression.

For `COc1cnc(CN2CCC(c3ccc4[nH]c(C(=O)N5CCN(Cc6ccc(C(F)(F)F)cc6)CC5)nc4c3)CC2)cn1` [Example 7, (5-{1-[(5-methoxypyrazin-2-yl)methyl]piperidin-4-yl}-1H-benzimidazol-2-yl){4-[4-(trifluoromethyl)benzyl]piperazin-1-yl}methanone ditosylate], the IC50 in assay [1] (setting [5]) amounted to 0.075 µM; in assay [2] (Homo sapiens, 96 h) it was 0.012 µM. Also, in assay [3] (3 mg/kg), the “Anti-tumor effect, regression rate” value stood at 49% regression.

Take `Cc1cnc(CN2CCC(c3ccc4nc(C(=O)N5CCN(Cc6ccc(C(F)(F)F)cc6)CC5)[nH]c4c3)CC2)cn1.Cl.Cl.Cl` [Example 8, (6-{1-[(5-methylpyrazin-2-yl)methyl]piperidin-4-yl}-1H-benzimidazol-2-yl){4-[4-(trifluoromethyl)benzyl]piperazin-1-yl}methanone trihydrochloride]: the IC50 stood at 0.083 µM in assay [1] (read-out: IC50 (Complex I inhibition); mitochondria from MDA-MB-453 tumor, absorbance 600 nm, 37° C.) and 0.026 µM in assay [2] (Homo sapiens, 96 h). Besides, the “Anti-tumor effect, inhibition rate” value in assay [3] (3 mg/kg) came out at 88% inhibition. In assay [4], this compound returned an EC50 of 0.013 µM.

For `COc1ccc(CN2CCC(c3ccc4nc(C(=O)N5CCN(Cc6ccc(C(F)(F)F)cc6)CC5)[nH]c4c3)CC2)cc1` [Example 14], the IC50 in assay [2] (Homo sapiens, 96 h) was determined as 0.0076 µM. This compound also yielded an EC50 in assay [4] of 0.034 µM.

For the compound `COc1ccc(CN2CCC(c3ccc4nc(C(=O)N5CCN(Cc6ccc(C(F)(F)F)cc6)CC5)n(C)c4c3)CC2)cn1` [Example 18], it took 0.003 µM to reach a half-maximal effect in assay [4] (EC50).

For the compound `COc1ccc(CN2CCC(c3ccc4c(c3)nc(C(=O)N3CCN(Cc5ccc(C(F)(F)F)cc5)CC3)n4C)CC2)cn1` [Example 19], the IC50 in assay [2] (Homo sapiens, 96 h) stood at 0.0085 µM. Moreover, it took 0.01 µM to reach a half-maximal effect in assay [4] (EC50).

For `COc1ccc(CN2CCC(c3ccc4nc(C(=O)N5CCN(Cc6ccc(C#N)cc6)CC5)[nH]c4c3)CC2)cn1` [Example 23], the IC50 in assay [1] (setting [5]) turned out to be 0.16 µM; in assay [2] (Homo sapiens, 96 h), 0.04 µM. Besides, the concentration giving a half-maximal response (EC50) in assay [4] came out at 0.019 µM.

Take `COc1ccc(CN2CCC(c3ccc4nc(C(=O)N5CCN(Cc6ccc(C(F)(F)F)cc6)CC5)cn4c3)CC2)cn1` [Example 35]: the concentration giving a half-maximal response (EC50) in assay [4] worked out at 0.0036 µM.

Turning to `COc1ccc(CN2CCC(c3ccn4cc(C(=O)N5CCN(Cc6ccc(C(F)(F)F)cc6)CC5)nc4c3)CC2)cn1` [Example 36, (7-{1-[(6-methoxypyridin-3-yl)methyl]piperidin-4-yl}imidazo[1,2-a]pyridin-2-yl){4-[4-(trifluoromethyl)benzyl]piperazin-1-yl}methanone ditosylate], the IC50 in assay [1] (setting [5]) was 0.055 µM; in assay [2] (Homo sapiens, 96 h), 0.011 µM. The “Anti-tumor effect, regression rate” value in assay [3] (3 mg/kg) is 10% regression. The concentration giving a half-maximal response (EC50) in assay [4] was determined as 0.0051 µM.

In the case of `COc1ccc(CN2CCC(c3ccc4nc(C(=O)N5CCN(Cc6ccc7c(c6)OC(F)(F)O7)CC5)[nH]c4c3)CC2)cn1` [Example 37], the IC50 in assay [1] (setting [5]) was determined as 0.029 µM; in assay [2] (Homo sapiens, 96 h), 0.0089 µM. In addition, the concentration giving a half-maximal response (EC50) in assay [4] was determined as 0.01 µM.

Consider `COc1ccc(CN2CCC(c3ccc4nc(C(=O)N5CCN(Cc6ccc(C(F)(F)F)cc6F)CC5)[nH]c4c3)CC2)cn1` [Example 38], for which the IC50 in assay [1] (setting [5]) was determined as 0.059 µM; in assay [2] (Homo sapiens, 96 h), 0.0081 µM. Also, in assay [4], the 50% effective concentration (EC50) stood at 0.013 µM.

As to `COc1ccc(CN2CCC(c3cc4cc(C(=O)N5CCN(Cc6ccc(C(F)(F)F)cc6)CC5)n(C)c4cn3)CC2)cn1` [Example 44], the IC50 in assay [1] (setting [5]) worked out at 0.087 µM; in assay [2] (Homo sapiens, 96 h), 0.0042 µM. In assay [4], this compound yielded an EC50 of 0.0052 µM.

As to `COc1ccc(CN2CCC(c3ccn4nc(C(=O)N5CCN(Cc6ccc(C(F)(F)F)cc6)CC5)cc4c3)CC2)cn1` [Example 49], the IC50 in assay [1] (setting [5]) is 0.018 µM; in assay [2] (Homo sapiens, 96 h) it was 0.0028 µM. The midpoint of the response in assay [4], the EC50, lay at 0.0065 µM.

For `COc1cnc(CN2CCC(c3ccn4nc(C(=O)N5CCN(Cc6ccc(C(F)(F)F)cc6)CC5)cc4c3)CC2)cn1` [Example 50], in assay [2] (Homo sapiens, 96 h), the IC50 turned out to be 0.004 µM. This compound also yielded an EC50 in assay [4] of 0.014 µM.

Regarding `COc1ccc(CN2CCC(n3cc4cc(C(=O)N5CCN(Cc6ccc(C(F)(F)F)cc6)CC5)ccc4n3)CC2)cn1` [Example 57], in assay [4], the concentration giving a half-maximal response (EC50) is 0.0018 µM.

In the case of `CCOc1cnc(CN2CCC(n3cc4cc(C(=O)N5CCN(Cc6ccc(C(F)(F)F)cc6)CC5)ccc4n3)CC2)cn1` [Example 58], the IC50 in assay [2] (Homo sapiens, 96 h) was 0.00055 µM. Further, in assay [4], the EC50 amounted to 0.00086 µM.

`CCOc1cnc(CN2CCC(c3ccc4c(c3)cc(C(=O)N3CCN(Cc5ccc(C#N)cc5)CC3)n4C)CC2)cn1` [Example 66]: the IC50 in assay [1] (setting [5]) was 0.12 µM; in assay [2] (Homo sapiens, 96 h), 0.0062 µM. Further, the “Anti-tumor effect, regression rate” value in assay [3] (1 mg/kg) was found to be 91% regression. In assay [4], this compound registered a half-maximal effective concentration (EC50) of 0.0028 µM.

For `CCOc1cnc(CN2CCC(c3ccc4cc(C(=O)N5CCN(Cc6ccc(C#N)cc6)CC5)n(C)c4c3)CC2)cn1` [Example 69], the IC50 in assay [1] (setting [5]) stood at 0.022 µM; in assay [2] (Homo sapiens, 96 h) it was 0.0032 µM. Besides, in assay [3] (1 mg/kg), the “Anti-tumor effect, regression rate” value is 87% regression.
